Test results from US12251383B2, “Methods and compositions for KRAS inhibitors” (The Board of Regents of the University of Texas System, priority 2019, dated 2025).

Columns and labels:
[1] = system: H522 (KRAS^WT) lung cancer cells; experiment: Cell proliferation (CyQuant), H522; type: cell-based; conditions: 72 h
Method: Cell proliferation. Potential effect of the ligands on cancer cell proliferation was tested in three lung cancer cells: SKLU-1, H1975 and H522. Cells were plated at ˜1,000 cell per well in a 96-well plate and maintained in full serum media with or without compound at 37° C. for 72 h changing the media with the compound every 24 h. Media with compound was prepared by serial dilution at concentrations indicated. Then cells were washed with PBS and frozen at −80° C. for a minimum of 24 h. Plates were thawed and CyQuant™ dye (in lysis buffer provided in the CyQuant™ cell proliferation assay kit, Invitrogen™) was added, and after a five-minute incubation, fluorescence (excitation: 480 nm emission: 520 nm) was measured with a Tecan Infinite M200 plate reader.

[2] = target: KRAS^Q61H in the GTP state (Homo sapiens, UniProt P01116, Q61H); experiment: MST binding, GTP-state KRAS Q61H
[3] = target: KRAS^G12D in the GTP state (Homo sapiens, UniProt P01116, G12D); experiment: MST binding, GTP-state KRAS G12D
Text: FIGS. 1A-1D show representative data for the predicted binding mode and measured affinity of disclosed compound 11 to KRAS. (FIG. 1A) Structure of the catalytic domain of KRAS used for the virtual screening. Lobe1 (residues 1-86) and lobe2 (residues 87-166) are highlighted in different colors, as well as switches 1 (residues 30-40) and 2 (residues 60-75). The location of the target allosteric pocket p1 is indicated. (FIG. 1B) Chemical structure of compound 11. (FIG. 1C) Predicted binding pose of compound 11, with the key residues that make polar or vdW contacts with the ligand labeled. (FIG. 1D) Microscale thermophoresis (MST) experiments indicating direct binding of compound 11 to KRAS, along with dissociation constants (KD) derived from the curves. Changes in fluorescence upon titration of […] KRAS with increasing concentration of compound are shown: KRAS^WT (red), KRAS^G12C (green), KRAS^G12D (purple) and KRAS^Q61M (blue), each bound to the non-hydrolyzable GTP analogue, guanylyl imidodiphosphate (GNP). The same experiments indicated no binding to GDP-bound KRAS^G12D and KRAS^WT as well as Rap1B, which was used as control. […]

Chain of KRAS^Q61H in the GTP state (P01116 1-188 isoform P01116-2 Q61H): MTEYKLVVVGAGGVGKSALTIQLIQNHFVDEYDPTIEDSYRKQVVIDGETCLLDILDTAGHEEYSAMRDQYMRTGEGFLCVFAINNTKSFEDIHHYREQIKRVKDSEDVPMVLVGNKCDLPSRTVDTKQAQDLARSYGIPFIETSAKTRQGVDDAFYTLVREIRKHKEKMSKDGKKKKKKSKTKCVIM
Chain of KRAS^G12D in the GTP state (P01116 1-188 isoform P01116-2 G12D): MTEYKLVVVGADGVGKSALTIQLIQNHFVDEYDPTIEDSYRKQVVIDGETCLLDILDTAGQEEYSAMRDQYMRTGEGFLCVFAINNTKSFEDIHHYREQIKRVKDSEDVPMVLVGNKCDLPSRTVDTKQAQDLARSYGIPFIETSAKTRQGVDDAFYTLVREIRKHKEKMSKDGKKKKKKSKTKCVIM

**Q.** For `Cc1nn2c(N3CCN(CCO)CC3)cc(-c3ccccc3)nc2c1-c1ccccc1` [Compound 11, 2-[4-(8-methyl-3,9-diphenyl-2,6,7-triazabicyclo[4.3.0]nona-2,4,7,9-tetraen-5-yl)piperazin-1-yl]ethanol], which sensitivity of proliferation [1] is on record?
**A.** Its sensitivity of proliferation is “sensitive”.

**Q.** What about the Kd [2] of the same compound?
**A.** The Kd was 400 to 700 nM.

**Q.** And the Kd [3]?
**A.** The Kd was 400 to 700 nM.
